This is an account of results in ChEMBL document CHEMBL1201862, “PubChem BioAssay data set” (2004).

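Values below derive from 48-hour exposures of cells grown in 96-well plates, with endpoints linearly interpolated between the two concentrations bracketing the appropriate inhibition level. GI50: concentration for 50% inhibition of growth.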 The source made the active and inactive calls. Rule as the data show it: active = GI50 up to about 1.1 µM and inactive = higher.

Test systems include 786-0; CAKI-1; HCT-116; HT-29; IGROV-1; K562; LOX IMVI; MDA-MB-435; MDA-N; NCI-H226; OVCAR-3; OVCAR-4; SF-295; SF-539; SK-MEL-28; SNB-75; SR; SW-620; UACC-62; HCC 2998.
Assay in all cases: DTP human tumour cell line panel, 48 h

With `C[N+](CCCl)(CCCl)Cc1cccc2cccc([N+](=O)[O-])c12`, the GI50 (commonly the concentration giving 50% growth inhibition) in the assay on 786-0 is > 100 µM (inactive); with CAKI-1 it was 31 µM (inactive); in the assay on HCT-116, > 100 µM (inactive); in the assay on HT-29 it was 55.8 µM (inactive); with IGROV-1 it was 56.4 µM (inactive); in the assay on K562, > 100 µM (inactive). In addition, the GI50 in the assay on LOX IMVI was 48.1 µM (inactive); with MDA-MB-435, > 100 µM (inactive); in the assay on MDA-N, > 100 µM (inactive); in the assay with NCI-H226, > 100 µM (inactive); in the assay with OVCAR-3, 44.7 µM (inactive); in the assay on OVCAR-4 it was 57.7 µM (inactive). Besides, the GI50 with SF-295 was > 100 µM (inactive); with SF-539, 94.8 µM (inactive); in the assay on SK-MEL-28, > 100 µM (inactive); with SNB-75, > 100 µM (inactive); in the assay on SR, 5.83 µM (inactive); in the assay on SW-620, > 100 µM (inactive). Besides, the GI50 in the assay on UACC-62 is > 100 µM (inactive).

`O=C(CCN1CCCCC1)c1csc2ccccc12`: the GI50 in the assay on 786-0 is 50.1 µM (inactive); in the assay with CAKI-1, > 100 µM (inactive); in the assay on HCT-116, > 100 µM (inactive); in the assay with HT-29, > 100 µM (inactive); with IGROV-1, > 100 µM (inactive); in the assay with K562 it was > 100 µM (inactive). The GI50 in the assay with LOX IMVI, in the assay with MDA-MB-435, in the assay with MDA-N, in the assay with NCI-H226, in the assay with OVCAR-3 and with OVCAR-4 was > 100 µM (inactive) throughout. Moreover, the GI50 in the assay with SF-295, with SF-539, in the assay with SK-MEL-28, in the assay on SNB-75, in the assay with SR and in the assay with SW-620 was > 100 µM (inactive) each time. Further, the GI50 with UACC-62 is > 100 µM (inactive).

Regarding `COC(=O)C[C@@H]1C(C)(C)[C@@H]2O[C@@]34C[C@@H]2C(=O)[C@]1(C)[C@H]3CC[C@@]1(C)[C@H](c2ccoc2)OC(=O)C[C@]14O`, the GI50 with 786-0, in the assay on CAKI-1, with HCT-116, in the assay on HT-29, with IGROV-1 and in the assay with K562 was > 100 µM (inactive) throughout. Further, the GI50 in the assay with LOX IMVI, in the assay on MDA-MB-435, in the assay on MDA-N, with NCI-H226, in the assay on OVCAR-3 and in the assay with OVCAR-4 was > 100 µM (inactive) throughout. In addition, the GI50 with SF-295, with SF-539, in the assay with SK-MEL-28, in the assay on SNB-75, with SR and in the assay on SW-620 was > 100 µM (inactive) in each case. The GI50 in the assay with UACC-62 was > 100 µM (inactive).

With `CC(=O)OC[C@@H](OC(C)=O)[C@H](OC(C)=O)[C@@H]1OC(C)(C)O[C@@H]1C1SCCCS1`, the GI50 with 786-0, in the assay with CAKI-1, in the assay on HCC 2998, in the assay with HCT-116, with K562 and with LOX IMVI was > 100 µM (inactive) each time. The GI50 in the assay on MDA-MB-435, in the assay with MDA-N, with OVCAR-3, in the assay with OVCAR-4, in the assay with SF-295 and in the assay with SF-539 was > 100 µM (inactive) each time. In addition, the GI50 in the assay with SK-MEL-28, in the assay with SNB-75, in the assay on SR, in the assay with SW-620 and in the assay with UACC-62 was > 100 µM (inactive) throughout.

With `Clc1cc(OC2C3CC4CC(C3)CC2C4)nc(Cl)n1` (stereo unspecified), the GI50 with 786-0 was 16.8 µM (inactive); with CAKI-1, 0.723 µM (active); in the assay on HCC 2998, 1.96 µM (inactive); in the assay with HCT-116, 14.3 µM (inactive); in the assay on HT-29, 15.4 µM (inactive); in the assay with IGROV-1 it was 10.6 µM (inactive). The GI50 is 4.62 µM (inactive) in the assay on K562; 3.86 µM (inactive) in the assay on LOX IMVI; 17.4 µM (inactive) with MDA-MB-435; 18.8 µM (inactive) in the assay with MDA-N; 18.1 µM (inactive) in the assay with OVCAR-3; 17.1 µM (inactive) with OVCAR-4. Further, the GI50 in the assay on SF-295 is 18 µM (inactive); in the assay on SF-539, 20.7 µM (inactive); in the assay on SK-MEL-28, 15 µM (inactive); in the assay with SNB-75, 39 µM (inactive); in the assay on SR it was 3.52 µM (inactive); with SW-620 it was 13.9 µM (inactive). Also, the GI50 with UACC-62 was 12.2 µM (inactive).

Regarding `O=c1[nH]c(=S)[nH]cc1CN1CCOCC1`, the GI50 in the assay with 786-0, with CAKI-1, in the assay on HCC 2998, in the assay with HCT-116, in the assay on HT-29 and with IGROV-1 was > 100 µM (inactive) each time. Moreover, the GI50 in the assay on K562, in the assay on LOX IMVI, with MDA-MB-435, with MDA-N, in the assay with OVCAR-3 and with OVCAR-4 was > 100 µM (inactive) throughout. Moreover, the GI50 in the assay with SF-295, in the assay on SF-539, in the assay with SK-MEL-28, in the assay on SNB-75, in the assay on SR and in the assay with SW-620 was > 100 µM (inactive) in each case. In addition, the GI50 in the assay with UACC-62 is > 100 µM (inactive).

For `OCCc1ccsc1-c1sc(-c2cc(CCO)c(-c3sccc3CCO)s2)cc1CCO`, the GI50 in the assay with 786-0 is 12 µM (inactive); in the assay on CAKI-1 it was 22.8 µM (inactive); in the assay on HCC 2998, 12.5 µM (inactive); in the assay on HCT-116, 16.6 µM (inactive); with IGROV-1, 15.7 µM (inactive); in the assay with K562, 7.94 µM (inactive). Moreover, the GI50 in the assay on LOX IMVI is 5.45 µM (inactive); in the assay with MDA-MB-435, 17.7 µM (inactive); in the assay on MDA-N, 21.6 µM (inactive); in the assay with OVCAR-3, 18.1 µM (inactive); in the assay with OVCAR-4, 15.6 µM (inactive); in the assay with SF-295, 15.1 µM (inactive). Also, the GI50 in the assay with SK-MEL-28 was 18.5 µM (inactive); with SR, 20.7 µM (inactive); in the assay on SW-620, 31.2 µM (inactive); with UACC-62 it was 11.6 µM (inactive).

As for `CCOc1ccc(-n2nnc3c(N)nc(N)nc32)cc1`, the GI50 in the assay on 786-0, in the assay on CAKI-1, in the assay with HCT-116, in the assay with HT-29, with IGROV-1 and in the assay with K562 was > 100 µM (inactive) in each case. Further, the GI50 in the assay with LOX IMVI, with MDA-MB-435, in the assay with MDA-N, in the assay on NCI-H226, in the assay on OVCAR-3 and in the assay on OVCAR-4 was > 100 µM (inactive) throughout. Besides, the GI50 in the assay with SF-295, in the assay with SF-539, in the assay on SK-MEL-28, in the assay with SNB-75, in the assay on SR and in the assay with SW-620 was > 100 µM (inactive) each time. Further, the GI50 in the assay with UACC-62 was > 100 µM (inactive).

Take `CCOC(=O)c1c(SCC#N)n(-c2ccccc2)c(=S)n(-c2ccccc2)c1=O`: the GI50 with 786-0 was 53.5 µM (inactive); in the assay with CAKI-1 it was > 100 µM (inactive); in the assay on HCT-116, 43.9 µM (inactive); with HT-29 it was 41.2 µM (inactive); with IGROV-1 it was 30.8 µM (inactive); in the assay on K562, 18.2 µM (inactive). For the same compound, the GI50 was 14.7 µM (inactive) in the assay with LOX IMVI; 38.7 µM (inactive) in the assay on MDA-MB-435; 82.8 µM (inactive) in the assay with MDA-N; 38.4 µM (inactive) with NCI-H226; 33.7 µM (inactive) with OVCAR-3; 40.7 µM (inactive) in the assay with OVCAR-4. Moreover, the GI50 was 32.1 µM (inactive) with SF-295; 57.9 µM (inactive) in the assay on SK-MEL-28; 25.8 µM (inactive) in the assay with SNB-75; 44 µM (inactive) in the assay with SR; 29.9 µM (inactive) in the assay on SW-620; 23.3 µM (inactive) in the assay with UACC-62.

For `O=C(N/N=C/c1ccc([N+](=O)[O-])cc1)c1cccc2nc3ccccc3nc12`, the GI50 in the assay with 786-0 was > 100 µM (inactive); in the assay on CAKI-1, > 100 µM (inactive); in the assay with HCT-116, > 100 µM (inactive); in the assay on HT-29, > 100 µM (inactive); in the assay with IGROV-1, > 100 µM (inactive); with K562 it was > 70.3 µM (inactive). Besides, the GI50 with LOX IMVI is > 85.5 µM (inactive); in the assay with MDA-MB-435, > 100 µM (inactive); with MDA-N, > 100 µM (inactive); in the assay on NCI-H226, > 100 µM (inactive); in the assay on OVCAR-3 it was > 100 µM (inactive); in the assay with OVCAR-4 it was > 100 µM (inactive). The GI50 was 78.2 µM (inactive) in the assay on SF-295; > 38.5 µM (inactive) with SF-539; > 100 µM (inactive) with SK-MEL-28; > 100 µM (inactive) with SNB-75; > 39.5 µM (inactive) in the assay on SR; > 100 µM (inactive) with SW-620. For the same compound, the GI50 with UACC-62 was > 100 µM (inactive).

With `O=S(=O)(O)c1ccc2c(/N=N\c3ccc(F)cc3)c(O)c(S(=O)(=O)O)cc2c1`, the GI50 in the assay with 786-0, in the assay with CAKI-1, with HCT-116, in the assay with HT-29, in the assay on IGROV-1 and with K562 was > 100 µM (inactive) each time. For the same compound, the GI50 in the assay on LOX IMVI, in the assay on MDA-MB-435, in the assay on MDA-N, in the assay with OVCAR-3, in the assay on OVCAR-4 and in the assay on SF-295 was > 100 µM (inactive) in each case. The GI50 with SK-MEL-28, in the assay with SNB-75, in the assay with SR, with SW-620 and with UACC-62 was > 100 µM (inactive) in each case.
